Literature values as cited in patent US7504230B2, “Method of identifying a useful set of signal transduction proteins from a multiplicity of potentially useful proteins” (Trelolis Bioscience, Inc., priority 1999, dated 2009).

How the values were obtained:
[1] = target: T1, PKC isoenzyme β (Homo sapiens, UniProt P05771); conditions: hDMEC, after stimulation with PMA; from cytosol (ditto mark)
T1 construct: endogenous in cells; host or cells: hDMEC (human dermal microvascular endothelial cells)

[2] = tested on: fusion of the C1 region with green fluorescent protein (GFP); conditions: from a diffuse cytoplasmic localization
[3] = target: T2, PKC isoenzyme ε (Homo sapiens, UniProt Q02156); conditions: hDMEC, after stimulation with PMA; from periphery
T2 construct: endogenous in cells; host or cells: hDMEC (human dermal microvascular endothelial cells)
T2 sequence (Q02156 1-737): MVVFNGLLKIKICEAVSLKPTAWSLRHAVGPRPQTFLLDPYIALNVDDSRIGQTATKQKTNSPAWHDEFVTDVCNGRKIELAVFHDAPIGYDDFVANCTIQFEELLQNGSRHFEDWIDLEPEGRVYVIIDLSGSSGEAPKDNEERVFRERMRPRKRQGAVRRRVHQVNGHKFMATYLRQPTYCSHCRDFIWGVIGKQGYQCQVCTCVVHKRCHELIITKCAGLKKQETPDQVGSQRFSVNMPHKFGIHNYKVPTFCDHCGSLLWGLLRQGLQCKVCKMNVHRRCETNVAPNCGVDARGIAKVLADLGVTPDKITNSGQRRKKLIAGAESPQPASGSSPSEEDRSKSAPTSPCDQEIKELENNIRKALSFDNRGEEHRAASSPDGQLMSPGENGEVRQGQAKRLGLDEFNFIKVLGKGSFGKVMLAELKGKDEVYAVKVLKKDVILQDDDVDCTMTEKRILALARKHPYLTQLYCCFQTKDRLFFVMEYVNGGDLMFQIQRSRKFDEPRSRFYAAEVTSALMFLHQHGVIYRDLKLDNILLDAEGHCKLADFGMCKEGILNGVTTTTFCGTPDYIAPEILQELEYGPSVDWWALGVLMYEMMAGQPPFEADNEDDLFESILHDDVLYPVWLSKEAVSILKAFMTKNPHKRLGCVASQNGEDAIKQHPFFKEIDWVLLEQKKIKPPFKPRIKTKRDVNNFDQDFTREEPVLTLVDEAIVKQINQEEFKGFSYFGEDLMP

[4] = target: T3, PKC isoenzyme ζ (Homo sapiens, UniProt Q05513); conditions: hDMEC, after stimulation with PMA; from fibrillar structures
T3 construct: endogenous in cells; host or cells: hDMEC (human dermal microvascular endothelial cells)
T3 sequence (Q05513 1-592): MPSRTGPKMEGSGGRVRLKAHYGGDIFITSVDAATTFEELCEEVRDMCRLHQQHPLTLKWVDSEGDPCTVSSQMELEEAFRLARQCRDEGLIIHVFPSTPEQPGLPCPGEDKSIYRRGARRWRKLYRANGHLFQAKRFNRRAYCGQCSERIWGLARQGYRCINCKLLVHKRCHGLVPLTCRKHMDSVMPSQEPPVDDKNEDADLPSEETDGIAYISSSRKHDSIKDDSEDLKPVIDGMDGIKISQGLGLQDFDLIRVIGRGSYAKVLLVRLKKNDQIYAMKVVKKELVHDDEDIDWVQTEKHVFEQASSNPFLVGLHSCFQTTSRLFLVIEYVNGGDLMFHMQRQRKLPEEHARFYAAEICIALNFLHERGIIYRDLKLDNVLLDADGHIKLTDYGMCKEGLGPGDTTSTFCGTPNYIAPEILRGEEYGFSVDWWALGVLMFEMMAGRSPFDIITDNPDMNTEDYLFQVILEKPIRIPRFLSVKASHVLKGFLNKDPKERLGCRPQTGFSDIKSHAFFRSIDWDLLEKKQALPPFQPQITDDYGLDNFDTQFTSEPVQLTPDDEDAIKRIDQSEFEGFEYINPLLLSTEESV

[5] = target: T4, PKC isoenzyme δ (Homo sapiens, UniProt Q05655); conditions: hDMEC, after stimulation with PMA; from cytosol
T4 construct: endogenous in cells; host or cells: hDMEC (human dermal microvascular endothelial cells)

[6] = target: T5, PKC isoenzyme α (Homo sapiens, UniProt P17252); conditions: hDMEC, after stimulation with PMA; from cytosol
T5 construct: endogenous in cells; host or cells: hDMEC (human dermal microvascular endothelial cells)

[7] = target: T6, PKC isoenzyme η (Homo sapiens, UniProt P24723); conditions: hDMEC, after stimulation with PMA; from nucleus
T6 construct: endogenous in cells; host or cells: hDMEC (human dermal microvascular endothelial cells)

[8] = target: T7, PKC isoenzyme βII (Homo sapiens, UniProt P05771); conditions: hDMEC, after stimulation with PMA; from nucleus
T7 construct: endogenous in cells; host or cells: hDMEC (human dermal microvascular endothelial cells)
T7 sequence (P05771 1-673 isoform P05771-2): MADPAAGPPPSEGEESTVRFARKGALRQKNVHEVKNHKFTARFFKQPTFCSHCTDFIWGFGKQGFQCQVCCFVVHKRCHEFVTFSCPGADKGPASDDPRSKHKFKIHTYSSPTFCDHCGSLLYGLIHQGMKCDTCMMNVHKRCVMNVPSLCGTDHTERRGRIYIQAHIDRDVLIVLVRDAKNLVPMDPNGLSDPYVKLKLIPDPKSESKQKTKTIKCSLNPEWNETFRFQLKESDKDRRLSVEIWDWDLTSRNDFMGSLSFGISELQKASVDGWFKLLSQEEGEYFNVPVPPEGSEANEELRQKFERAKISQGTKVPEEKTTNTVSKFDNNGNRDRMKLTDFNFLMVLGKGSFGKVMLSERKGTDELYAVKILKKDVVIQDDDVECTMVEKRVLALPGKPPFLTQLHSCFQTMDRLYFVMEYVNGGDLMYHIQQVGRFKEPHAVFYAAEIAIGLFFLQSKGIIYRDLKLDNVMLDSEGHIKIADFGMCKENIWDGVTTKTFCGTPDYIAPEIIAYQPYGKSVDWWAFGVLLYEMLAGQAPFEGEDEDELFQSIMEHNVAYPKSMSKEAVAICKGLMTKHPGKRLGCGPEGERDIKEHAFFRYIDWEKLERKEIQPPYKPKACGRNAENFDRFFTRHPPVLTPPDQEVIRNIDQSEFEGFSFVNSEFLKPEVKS

T4 sequence (Q05655 whole entry): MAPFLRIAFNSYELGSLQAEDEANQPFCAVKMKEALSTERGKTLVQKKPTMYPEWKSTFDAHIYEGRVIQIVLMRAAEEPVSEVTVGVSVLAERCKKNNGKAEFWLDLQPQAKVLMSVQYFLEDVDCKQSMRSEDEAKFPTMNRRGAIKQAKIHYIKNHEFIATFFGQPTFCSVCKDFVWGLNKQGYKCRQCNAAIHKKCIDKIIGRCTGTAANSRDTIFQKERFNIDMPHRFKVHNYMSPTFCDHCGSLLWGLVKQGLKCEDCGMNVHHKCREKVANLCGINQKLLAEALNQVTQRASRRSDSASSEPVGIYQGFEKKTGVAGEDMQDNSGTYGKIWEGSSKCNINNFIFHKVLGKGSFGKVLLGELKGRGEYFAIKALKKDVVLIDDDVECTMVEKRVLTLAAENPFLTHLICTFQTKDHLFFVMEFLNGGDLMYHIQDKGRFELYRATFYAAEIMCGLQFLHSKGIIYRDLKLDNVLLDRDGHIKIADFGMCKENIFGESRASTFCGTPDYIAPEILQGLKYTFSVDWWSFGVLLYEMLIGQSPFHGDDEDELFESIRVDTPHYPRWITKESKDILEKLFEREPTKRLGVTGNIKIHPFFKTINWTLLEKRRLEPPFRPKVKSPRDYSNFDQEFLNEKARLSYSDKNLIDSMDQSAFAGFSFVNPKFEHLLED
T6 sequence (P24723 whole entry): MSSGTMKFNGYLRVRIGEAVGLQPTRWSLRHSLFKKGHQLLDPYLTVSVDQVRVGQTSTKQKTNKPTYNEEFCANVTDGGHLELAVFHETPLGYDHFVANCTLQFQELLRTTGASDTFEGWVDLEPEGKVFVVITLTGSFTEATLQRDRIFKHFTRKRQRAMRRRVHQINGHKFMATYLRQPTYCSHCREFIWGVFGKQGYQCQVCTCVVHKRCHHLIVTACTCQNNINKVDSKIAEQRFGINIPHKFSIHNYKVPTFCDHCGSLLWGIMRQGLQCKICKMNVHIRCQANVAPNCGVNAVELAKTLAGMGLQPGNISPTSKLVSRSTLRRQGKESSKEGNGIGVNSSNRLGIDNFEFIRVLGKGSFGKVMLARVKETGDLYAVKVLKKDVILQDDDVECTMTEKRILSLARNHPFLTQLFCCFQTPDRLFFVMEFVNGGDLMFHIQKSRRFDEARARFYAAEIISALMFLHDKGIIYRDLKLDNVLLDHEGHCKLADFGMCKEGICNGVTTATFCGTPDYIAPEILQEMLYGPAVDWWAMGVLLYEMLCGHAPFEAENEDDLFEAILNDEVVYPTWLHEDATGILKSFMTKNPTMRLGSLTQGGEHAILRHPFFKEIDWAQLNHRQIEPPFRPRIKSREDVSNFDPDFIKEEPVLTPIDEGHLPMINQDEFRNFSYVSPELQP
T1 sequence (P05771 whole entry): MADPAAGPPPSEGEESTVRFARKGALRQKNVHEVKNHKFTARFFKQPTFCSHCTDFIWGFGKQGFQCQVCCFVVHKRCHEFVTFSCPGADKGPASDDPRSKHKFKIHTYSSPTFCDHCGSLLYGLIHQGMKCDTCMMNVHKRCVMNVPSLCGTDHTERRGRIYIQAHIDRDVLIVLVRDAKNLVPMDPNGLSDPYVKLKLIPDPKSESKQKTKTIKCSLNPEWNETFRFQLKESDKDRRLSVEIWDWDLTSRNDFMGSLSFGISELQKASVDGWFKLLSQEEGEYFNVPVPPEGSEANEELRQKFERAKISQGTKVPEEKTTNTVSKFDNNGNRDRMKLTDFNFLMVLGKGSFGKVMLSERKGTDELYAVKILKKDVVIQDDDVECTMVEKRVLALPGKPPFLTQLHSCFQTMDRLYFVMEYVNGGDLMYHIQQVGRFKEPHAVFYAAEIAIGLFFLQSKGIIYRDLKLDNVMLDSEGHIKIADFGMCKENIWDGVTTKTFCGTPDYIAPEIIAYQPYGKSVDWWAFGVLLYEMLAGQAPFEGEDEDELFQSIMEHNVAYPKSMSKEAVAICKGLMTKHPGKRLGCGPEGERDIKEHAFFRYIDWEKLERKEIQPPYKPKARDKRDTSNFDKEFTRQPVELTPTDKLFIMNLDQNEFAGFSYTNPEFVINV

CCCCCCCCCCCCCC(=O)O[C@@H]1[C@@H](C)[C@@]2(O)[C@@H](C=C(CO)C[C@]3(O)C(=O)C(C)=C[C@@H]23)[C@@H]2C(C)(C)[C@]12OC(C)=O [PMA, phorbol myristic acetate]
Localization after stimulation (To) [1]: nucleus
Localization of C1-GFP fusion protein in response to PMA [2]: membrane bound
Localization after stimulation (To) [3]: perinucleus
Localization after stimulation (To) [4]: no change
Localization after stimulation (To) [5]: cytoskeletal elements
Localization after stimulation (To) [6]: perinuclear membrane
Localization after stimulation (To) [7]: no change
Localization after stimulation (To) [8]: filamentous structures
